Data reported in patent US20250154099A1, “PREPARATION METHOD OF 2-PHENYLINDOLE DERIVATIVES AND APPLICATION THEREOF” (Shihezi University, priority 2022, published 2025).
≈ marks a conversion by molar mass, not a printed value. Where two headings read alike, the source gives them in different places.

Legend:
Assay type in all cases: cell-based
[1] = system: Candida albicans BNCC186382; assay: MIC by microdilution method, sensitive Candida albicans; conditions: for MIC: Candida albicans, read-out: MIC Candida albicans
From the text: (§1) Used bacteria: including drug-resistant bacteria and sensitive bacteria: the used sensitive strains include Cryptococcus neoformans BNCC225501, Candida albicans BNCC186382, Aspergillus fumigatus Fresenius BNCC338385, Escherichia coli BNCC336902, Staphylococcus aureus BNCC186335 and Pseudomonas aeruginosa Migula BNCC337940, and the used drug-resistant Candida albicans is clinically isolated azole multi-drug resistant Candida albicans (CA10) donated by Qianfoshan Hospital in Shandong Province. The strains are stored in normal saline containing 20% glycerol at −80° C. for a long time. Before operation, the strains are lined and transferred to a YPD solid plate, and subjected to static culture at 30° C. for 24 h; single colonies are selected and transferred to a YPD liquid medium, and cultured at 200 rpm at 30° C. overnight; and the overnight cultured bacterial solution is inoculated into a new YPD liquid medium at a ratio of about 1:100, and subjected to shaking culture at 200 rpm at 30° C. for 4 h so that Candida albicans is in a logarithmic phase.
(§2) Culture medium: the culture medium used by the microdilution method is RPMI-1640 culture medium (Gibco).
(§3) 1.2 Operation and results of detection of minimum inhibitory concentration (MIC) of the compounds and the azole drugs by the microdilution method: the MIC of the synthesized compound and the azole drug fluconazole for the standard strains is detected by the microdilution method according to fungal sensitivity detection method (M27-A3) established by the Clinical and Laboratory Standards Institute (CLSI). Specific steps are as follows: the prepared strain concentration is adjusted to 0.5-2.5×10^3 CFU/mL by using RPMI-1640 medium. 200 μL of bacterial solution containing the highest concentration of the drug to be detected is added into the first well of a 96-well plate, and 100 μL of blank bacterial solution without drug is added into each of the other wells; the bacterial solution is diluted to a series of concentration gradients by a double gradient dilution method; the well plate is subjected to static culture at constant temperature of 35° C. for 24 h; after the absorbance (OD) of each concentration gradient at 570 nm is detected by a microplate reader and the absorbance of a blank medium is subtracted, the growth rate=dosing hole value/control hole value ×100%, the inhibition rate=1−growth rate, and the minimum concentration with the inhibition rate greater than 80% is the minimum inhibitory concentration (MIC) value.

[2] = system: Cryptococcus neoformans BNCC225501; assay: MIC by microdilution method, sensitive Cryptococcus neoformans; conditions: for MIC: Cryptococcus neoformans, read-out: MIC Cryptococcus neoformans
From the text: as §1, §2, §3

[3] = system: Aspergillus fumigatus Fresenius BNCC338385; assay: MIC by microdilution method, sensitive Aspergillus fumigatus Fresenius; conditions: 24 h; for MIC: Aspergillus fumigatus, read-out: MIC Aspergillus fumigatus Fresenius
From the text: as §1, §2, §3

[4] = system: Staphylococcus aureus BNCC186335; assay: MIC by microdilution method, sensitive Staphylococcus aureus; conditions: read-out: MIC Staphylococcus aureus
From the text: as §1, §2, §3

[5] = system: Escherichia coli BNCC336902; assay: MIC by microdilution method, sensitive Escherichia coli; conditions: read-out: MIC Escherichia coli
From the text: as §1, §2, §3

[6] = system: Pseudomonas aeruginosa Migula BNCC337940; assay: MIC by microdilution method, sensitive Pseudomonas aeruginosa Migula; conditions: 24 h, read-out: MIC Pseudomonas aeruginosa Migula
From the text: as §1, §2, §3

[7] = system: Drug-resistant Candida albicans CA10; assay: MIC by microdilution method, drug-resistant Candida albicans CA10; conditions: clinically isolated azole multi-drug resistant strain CA10; 24 h
From the text: as §1, §2, §3

Candida albicans CA10 = assay: Checkerboard microdilution assay of compound combined with fluconazole, FICI model; conditions: Candida albicans; CA10; fluconazole alone; read-out: MIC of azole (fluconazole) used separately
Experimental: The concentration of Candida albicans CA10 is adjusted to 0.5-2.5×10^3 CFU/mL by using RPMI-1640 medium, and the diluted bacterial solution is used for preparing a working solution of the compound and the azole drug with double concentration gradient. 50 μl of working solution of double concentration of azole drugs and working solution of double concentration of the compound to be detected at each concentration gradient are added in the longitudinal (A-H) direction and transverse (1-12) direction of the 96-well plate respectively, so that the final drug concentration range of fluconazole is 4-64 μg/ml, and the drug concentration range of the compound is 256-16 μg/ml. The 96-well plate is cultured in a constant temperature incubator at 35° C. for 24 h. The amount of viable bacteria is detected with an XTT cell proliferation assay kit, and the absorbance of each well at 490 nm wavelength is detected by the microplate reader. Growth rate=dosing well value/control well value×100%, and inhibition rate=1−growth rate. The MIC when the inhibition rate is about 80% is a break point of the combination of two drugs.
The combination data of the compound and the azole drug collected by the checkerboard microdilution assay are analyzed by an FICI (fractional inhibitory concentration index) model, and the interaction effects are evaluated.
The FICI model can be expressed by the following formula: […]
Wherein: MICA and MICB are MIC values of drug A and drug B used separately, while MICAB and MICBA are the concentrations of drug A and drug B corresponding to the minimum effective dose of the combination of drug A and drug B.

[8] = sensitive strain, 35° C., 24 h, minimum concentration with inhibition rate greater than 80%
[9] = sensitive strain, 35° C., minimum concentration with inhibition rate greater than 80%
[10] = BNCC186382, sensitive strain, 35° C., 24 h, minimum concentration with inhibition rate greater than 80%
[11] = BNCC225501, sensitive strain, 35° C., 24 h, minimum concentration with inhibition rate greater than 80%
[12] = BNCC186335, sensitive strain, 35° C., 24 h, minimum concentration with inhibition rate greater than 80%
[13] = BNCC336902, sensitive strain, 35° C., 24 h, minimum concentration with inhibition rate greater than 80%

Compound | MIC ([1]; BNCC186382, 24 h) [µg/mL] | MIC ([2]; BNCC225501, 24 h) [µg/mL] | MIC [3] [µg/mL] | MIC ([4]; BNCC186335, 24 h) [µg/mL] | MIC ([5]; BNCC336902, 24 h) [µg/mL] | MIC [6] [µg/mL] | MIC80 Drug-resistant Candida albicans CA10 [7] [µg/mL] | MIC Candida albicans [1, 8] [µg/mL] | MIC Cryptococcus neoformans [2, 8] [µg/mL] | MIC Aspergillus fumigatus Fresenius [3, 9] [µg/mL] | MIC [1, 10] [µg/mL] | MIC [2, 11] [µg/mL] | MIC [3, 9] [µg/mL] | MIC [4, 12] [µg/mL] | MIC [5, 13] [µg/mL] | MIC [6, 9] [µg/mL] | MIC (Candida albicans CA10) [µg/mL]
Fc1ccc(-c2cc3ccccc3[nH]2)cc1 [Compound 10] | > 256 | > 256 | > 256 | > 256 | > 256 | > 256 | > 256 | – | – | – | – | – | – | – | – | – | –
C[C@@H]1[C@H](O)[C@@H](C)/C=C/C=C/C=C/C=C/C=C/C=C/C=C/[C@H](O[C@@H]2O[C@H](C)[C@@H](O)[C@H](N)[C@@H]2O)C[C@@H]2O[C@](O)(C[C@@H](O)C[C@@H](O)[C@H](O)CC[C@@H](O)C[C@@H](O)CC(=O)O[C@H]1C)C[C@H](O)[C@H]2C(=O)O [Amphotericin B, amphotericin B, reference compound] | – | – | – | – | – | – | – | 2 (≈ 2.16 µM) | 64 (≈ 69.3 µM) | 16 (≈ 17.3 µM) | – | – | – | – | – | – | –
O=[N+]([O-])c1cccc(-c2cc3ccccc3[nH]2)c1 [Compound 12] | 4 (≈ 16.8 µM) | 8 (≈ 33.6 µM) | 4 (≈ 16.8 µM) | 256 (≈ 1070 µM) | 8 (≈ 33.6 µM) | 2 (≈ 8.39 µM) | > 256 | – | – | – | – | – | – | – | – | – | –
COc1ccc2[nH]c(-c3ccccc3)cc2c1 [Compound 18] | – | – | – | – | – | – | > 256 | – | – | – | 256 (≈ 1150 µM) | 256 (≈ 1150 µM) | 256 (≈ 1150 µM) | 256 (≈ 1150 µM) | 256 (≈ 1150 µM) | 256 (≈ 1150 µM) | –
COc1ccc2cc(-c3ccccc3)[nH]c2c1 [Compound 3] | – | – | – | – | – | – | > 256 | – | – | – | 256 (≈ 1150 µM) | 256 (≈ 1150 µM) | 256 (≈ 1150 µM) | 256 (≈ 1150 µM) | 256 (≈ 1150 µM) | 64 (≈ 287 µM) | –
c1ccc2[nH]c(-c3ccc4c(c3)OCO4)cc2c1 [Compound 15] | 256 (≈ 1080 µM) | 256 (≈ 1080 µM) | 256 (≈ 1080 µM) | 256 (≈ 1080 µM) | 256 (≈ 1080 µM) | 16 (≈ 67.4 µM) | > 256 | – | – | – | – | – | – | – | – | – | –
FC(F)(F)c1ccc(-c2cc3ccccc3[nH]2)cc1 [Compound 13] | 256 (≈ 980 µM) | 256 (≈ 980 µM) | 256 (≈ 980 µM) | 256 (≈ 980 µM) | 256 (≈ 980 µM) | 16 (≈ 61.2 µM) | > 256 | – | – | – | – | – | – | – | – | – | –
c1ccc(-c2cc3ccccc3[nH]2)cc1 [Compound 6] | > 256 | 256 (≈ 1320 µM) | > 256 | > 256 | > 256 | > 256 | > 256 | – | – | – | – | – | – | – | – | – | –
COC(=O)c1ccc2[nH]c(-c3ccccc3)cc2c1 [Compound 19] | – | – | – | – | – | – | > 256 | – | – | – | 8 (≈ 31.8 µM) | 256 (≈ 1020 µM) | 16 (≈ 63.7 µM) | 8 (≈ 31.8 µM) | 256 (≈ 1020 µM) | 32 (≈ 127 µM) | –
[H]/N=C(/N)N[C@H]1[C@H](O)[C@@H](O)[C@H](O[C@@H]2O[C@@H](C)[C@](O)(C=O)[C@H]2O[C@@H]2O[C@@H](CO)[C@H](O)[C@@H](O)[C@@H]2NC)[C@@H](N/C(N)=N\[H])[C@@H]1O [Streptomycin, reference compound] | – | – | – | – | – | – | – | – | – | – | – | – | – | 2 (≈ 3.44 µM) | 2 (≈ 3.44 µM) | 2 (≈ 3.44 µM) | –
Cc1ccc2[nH]c(-c3ccccc3)cc2c1 [Compound 16] | – | – | – | – | – | – | > 256 | – | – | – | 256 (≈ 1240 µM) | 256 (≈ 1240 µM) | 256 (≈ 1240 µM) | 256 (≈ 1240 µM) | 16 (≈ 77.2 µM) | 256 (≈ 1240 µM) | –
Fc1ccc2[nH]c(-c3ccccc3)cc2c1 [Compound 22] | – | – | – | – | – | – | > 256 | – | – | – | 256 (≈ 1210 µM) | 8 (≈ 37.9 µM) | 256 (≈ 1210 µM) | 16 (≈ 75.7 µM) | 32 (≈ 151 µM) | 256 (≈ 1210 µM) | –
OC(Cn1cncn1)(Cn1cncn1)c1ccc(F)cc1F [Fluconazole, fluconazole, reference compound] | – | – | – | – | – | – | > 128 | – | – | – | 2 (≈ 6.53 µM) | 2 (≈ 6.53 µM) | 2 (≈ 6.53 µM) | – | – | – | > 128
Brc1ccc2cc(-c3ccccc3)[nH]c2c1 [Compound 23] | – | – | – | – | – | – | > 256 | – | – | – | 256 (≈ 941 µM) | 256 (≈ 941 µM) | 256 (≈ 941 µM) | 256 (≈ 941 µM) | 256 (≈ 941 µM) | 8 (≈ 29.4 µM) | –
Clc1ccc(-c2cc3ccccc3[nH]2)cc1 [Compound 11] | > 256 | > 256 | > 256 | > 256 | > 256 | > 256 | > 256 | – | – | – | – | – | – | – | – | – | –
Clc1ccc2[nH]c(-c3ccccc3)cc2c1 [Compound 21] | – | – | – | – | – | – | > 256 | – | – | – | > 256 | > 256 | > 256 | > 256 | > 256 | > 256 | –
COc1cccc(-c2cc3ccccc3[nH]2)c1 [Compound 1] | 16 (≈ 71.7 µM) | 4 (≈ 17.9 µM) | 8 (≈ 35.8 µM) | 64 (≈ 287 µM) | 4 (≈ 17.9 µM) | 8 (≈ 35.8 µM) | > 256 | – | – | – | – | – | – | – | – | – | –
Cc1ccc(-c2cc3ccccc3[nH]2)cc1 [Compound 8] | 256 (≈ 1240 µM) | 256 (≈ 1240 µM) | 256 (≈ 1240 µM) | 256 (≈ 1240 µM) | 8 (≈ 38.6 µM) | 256 (≈ 1240 µM) | > 256 | – | – | – | – | – | – | – | – | – | –
COC(=O)c1ccc2cc(-c3ccccc3)[nH]c2c1 [Compound 20] | – | – | – | – | – | – | > 256 | – | – | – | 32 (≈ 127 µM) | 256 (≈ 1020 µM) | 256 (≈ 1020 µM) | 32 (≈ 127 µM) | 256 (≈ 1020 µM) | 8 (≈ 31.8 µM) | –
Cc1cccc(-c2cc3ccccc3[nH]2)c1 [Compound 7] | 256 (≈ 1240 µM) | 256 (≈ 1240 µM) | 256 (≈ 1240 µM) | 8 (≈ 38.6 µM) | 8 (≈ 38.6 µM) | 256 (≈ 1240 µM) | > 256 | – | – | – | – | – | – | – | – | – | –
